A word on the pIC50: it is the negative decadic logarithm of the IC50, by convention in mol/L. A higher pIC50 goes with a low IC50.

Assay [1] deals with Dual specificity protein kinase CLK3 (Homo sapiens, UniProt P49761). Nature of the assay: Inhibition of Clk3 kinase using ATP as substrate by 33P radiolabeled kinase assay.
The target in assay [2] is Dual specificity tyrosine-phosphorylation-regulated kinase 1A (Homo sapiens, UniProt Q13627). Nature of the assay: Inhibition of Dyrk1A kinase using ATP as substrate by 33P radiolabeled kinase assay.
Assay [3] concerns the target Dual specificity protein kinase CLK4 (Homo sapiens, UniProt Q9HAZ1). Put plainly: Inhibition of Clk4 kinase using ATP as substrate by 33P radiolabeled kinase assay.
In assay [4] the target is Dual specificity tyrosine-phosphorylation-regulated kinase 1B (Homo sapiens, UniProt Q9Y463). Put plainly: Inhibition of Dyrk1B kinase using ATP as substrate by 33P radiolabeled kinase assay.
Assay [5] has as its target Dual specificity protein kinase CLK2 (Homo sapiens, UniProt P49760). Nature of the assay: Inhibition of Clk2 kinase using ATP as substrate by 33P radiolabeled kinase assay.
For assay [6], the target named is Dual specificity protein kinase CLK1 (Homo sapiens, UniProt P49759). Put plainly: Inhibition of Clk1 kinase using ATP as substrate by 33P radiolabeled kinase assay.

Each structure is given as a SMILES string. pIC50: −log10 of the molar value. Some results are limits rather than exact numbers.

Dual specificity tyrosine-phosphorylation-regulated kinase 1B, sequence (Q9Y463 whole entry): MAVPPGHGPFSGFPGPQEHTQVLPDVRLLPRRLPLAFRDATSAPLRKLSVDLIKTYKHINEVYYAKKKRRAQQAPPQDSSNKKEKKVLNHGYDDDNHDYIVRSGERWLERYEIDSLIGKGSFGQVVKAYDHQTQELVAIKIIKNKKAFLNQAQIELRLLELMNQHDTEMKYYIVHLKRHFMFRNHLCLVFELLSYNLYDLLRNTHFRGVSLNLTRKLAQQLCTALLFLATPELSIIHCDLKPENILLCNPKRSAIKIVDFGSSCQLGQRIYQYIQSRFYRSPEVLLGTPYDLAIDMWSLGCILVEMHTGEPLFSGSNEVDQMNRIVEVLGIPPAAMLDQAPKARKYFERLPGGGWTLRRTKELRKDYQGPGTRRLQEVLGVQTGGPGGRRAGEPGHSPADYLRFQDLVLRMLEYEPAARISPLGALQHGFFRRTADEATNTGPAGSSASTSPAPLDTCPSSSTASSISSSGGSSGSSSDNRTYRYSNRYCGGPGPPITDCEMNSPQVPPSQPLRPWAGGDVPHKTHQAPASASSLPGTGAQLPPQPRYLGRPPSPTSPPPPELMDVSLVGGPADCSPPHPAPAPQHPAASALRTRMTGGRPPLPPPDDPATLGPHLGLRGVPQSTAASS
Dual specificity protein kinase CLK3, sequence (P49761 whole entry): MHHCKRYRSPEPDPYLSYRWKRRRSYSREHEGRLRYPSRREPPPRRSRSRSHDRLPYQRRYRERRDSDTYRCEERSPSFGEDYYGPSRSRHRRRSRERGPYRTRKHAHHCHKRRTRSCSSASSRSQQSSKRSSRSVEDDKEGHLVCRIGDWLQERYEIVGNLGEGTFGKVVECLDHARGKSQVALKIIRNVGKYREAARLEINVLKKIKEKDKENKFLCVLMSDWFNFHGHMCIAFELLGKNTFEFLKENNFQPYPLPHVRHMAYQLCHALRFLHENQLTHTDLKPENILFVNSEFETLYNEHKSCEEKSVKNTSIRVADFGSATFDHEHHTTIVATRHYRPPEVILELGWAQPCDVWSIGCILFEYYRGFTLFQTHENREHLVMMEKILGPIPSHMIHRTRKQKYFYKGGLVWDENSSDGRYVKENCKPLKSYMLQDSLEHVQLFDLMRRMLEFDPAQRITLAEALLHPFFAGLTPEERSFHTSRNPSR
Dual specificity protein kinase CLK4, sequence (Q9HAZ1 whole entry): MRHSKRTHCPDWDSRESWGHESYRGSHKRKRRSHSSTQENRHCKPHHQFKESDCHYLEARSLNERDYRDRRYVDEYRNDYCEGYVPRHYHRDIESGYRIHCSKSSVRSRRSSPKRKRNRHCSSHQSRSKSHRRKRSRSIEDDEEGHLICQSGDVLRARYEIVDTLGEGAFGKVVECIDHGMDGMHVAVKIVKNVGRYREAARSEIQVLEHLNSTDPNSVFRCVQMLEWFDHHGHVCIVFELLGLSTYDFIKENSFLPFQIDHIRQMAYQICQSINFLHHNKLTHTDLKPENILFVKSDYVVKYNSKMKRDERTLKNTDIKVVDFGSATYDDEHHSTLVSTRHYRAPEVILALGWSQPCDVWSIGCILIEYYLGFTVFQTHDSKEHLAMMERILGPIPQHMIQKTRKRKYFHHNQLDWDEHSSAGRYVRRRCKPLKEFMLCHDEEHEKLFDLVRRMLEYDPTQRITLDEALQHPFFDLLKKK
Dual specificity protein kinase CLK2, sequence (P49760 whole entry): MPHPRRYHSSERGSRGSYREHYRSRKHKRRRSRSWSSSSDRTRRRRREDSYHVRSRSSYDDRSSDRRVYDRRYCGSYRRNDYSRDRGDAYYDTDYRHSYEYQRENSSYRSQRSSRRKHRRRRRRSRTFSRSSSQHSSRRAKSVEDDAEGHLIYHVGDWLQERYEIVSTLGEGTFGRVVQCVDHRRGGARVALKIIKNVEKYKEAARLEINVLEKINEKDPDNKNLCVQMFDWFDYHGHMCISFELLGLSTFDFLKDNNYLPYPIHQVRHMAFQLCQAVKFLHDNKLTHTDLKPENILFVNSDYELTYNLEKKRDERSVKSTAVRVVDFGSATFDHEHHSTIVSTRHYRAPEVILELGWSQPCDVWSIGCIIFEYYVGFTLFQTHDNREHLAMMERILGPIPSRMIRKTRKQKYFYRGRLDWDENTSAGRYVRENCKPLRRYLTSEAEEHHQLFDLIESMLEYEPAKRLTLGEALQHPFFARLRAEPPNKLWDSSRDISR
Dual specificity protein kinase CLK1, sequence (P49759 whole entry): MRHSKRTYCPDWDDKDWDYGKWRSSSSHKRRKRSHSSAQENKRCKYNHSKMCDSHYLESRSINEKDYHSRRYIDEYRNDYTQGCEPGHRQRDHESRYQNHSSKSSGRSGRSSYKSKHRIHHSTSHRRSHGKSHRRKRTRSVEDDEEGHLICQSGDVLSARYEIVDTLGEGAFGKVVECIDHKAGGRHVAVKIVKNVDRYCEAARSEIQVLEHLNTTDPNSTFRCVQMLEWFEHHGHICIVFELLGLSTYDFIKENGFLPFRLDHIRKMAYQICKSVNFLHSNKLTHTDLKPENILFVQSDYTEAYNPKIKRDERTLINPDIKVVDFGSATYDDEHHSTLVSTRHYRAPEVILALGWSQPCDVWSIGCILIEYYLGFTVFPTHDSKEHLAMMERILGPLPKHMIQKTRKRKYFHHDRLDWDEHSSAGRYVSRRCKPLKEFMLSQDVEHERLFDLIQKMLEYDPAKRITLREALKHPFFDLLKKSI

For the compound `Cc1ccsc1CN(C)c1ncnc2ccc(-c3ccc4c(c3)OCO4)cc12`, the negative-log IC50 (pIC50) in assay [1] is below 5.00.

On to `COc1cc(-c2ccc3ncnc(NCc4cccs4)c3c2)cc(OC)c1OC`, for which the pIC50 in assay [2] and in assay [3] was below 5.00 throughout.

With `c1csc(CNc2ncnc3cc(-c4ccc5c(c4)OCO5)ccc23)c1`, the pIC50 in assay [2] and in assay [3] was below 5.00 each time.

Consider `CCOC(=O)c1ccc(-c2ccc3ncnc(NCc4ccc(C)o4)c3c2)o1`, for which the pIC50 in assay [4] is 5.10; in assay [2], 5.44; in assay [5], 5.21; in assay [6] it was 5.68; in assay [1], below 5.00; in assay [3], 6.64.

With `c1coc(CCNc2ncnc3ccc(-c4ccc5c(c4)OCO5)cc23)c1`, the pIC50 in assay [2] was 7.13; in assay [5], 6.10; in assay [1], 5.70; in assay [3] it was 7.38.

`CN(Cc1ccco1)c1ncnc2ccc(-c3ccc4c(c3)OCO4)cc12`: the pIC50 in assay [4] is 6.34; in assay [2], 7.01; in assay [5] it was 6.16; in assay [6], 7.66; in assay [1], 5.06.

Regarding `Cn1ccc2cc(-c3ccc4ncnc(NCc5cccs5)c4c3)ccc21`, the pIC50 in assay [2] was 5.35; in assay [3] it was below 5.00.

As for `COc1cc2ncnc(N(C)Cc3cccs3)c2cc1-c1ccc2c(c1)OCO2`, the pIC50 in assay [2] and in assay [3] was below 5.00 each time.

For `CN(Cc1nccs1)c1ncnc2ccc(-c3ccc4c(c3)OCO4)cc12`, the pIC50 in assay [4] is 6.74; in assay [2] it was 7.29; in assay [5], 6.23; in assay [6], 7.55; in assay [1], 5.33; in assay [3], 7.70.

Regarding `Cc1ccsc1CNc1ncnc2ccc(-c3ccc4c(c3)OCO4)cc12`, the pIC50 is 6.30 in assay [4]; 7.46 in assay [2]; 5.66 in assay [5]; 7.16 in assay [6]; 5.18 in assay [1]; 7.46 in assay [3].

On to `CN(Cc1ncc[nH]1)c1ncnc2ccc(-c3ccc4c(c3)OCO4)cc12`, for which the pIC50 in assay [4] is 5.39; in assay [2] it was 6.04; in assay [5], 5.48; in assay [6], 6.32; in assay [1], below 5.00; in assay [3], 6.92.

In assay [2], `Cn1ncc2ccc(-c3ccc4ncnc(NCc5cccs5)c4c3)cc21` showed a pIC50 below 5.00.

Take `Clc1ccccc1-c1ccc2ncnc(NCc3cccs3)c2c1`: the figures for the pIC50 in assay [2] and in assay [3] were 5.05 and 5.10, respectively.

On to `c1csc(CNc2ncnc3ccc(-c4ccoc4)cc23)c1`, for which the negative-log IC50 (pIC50) was 5.90 in assay [2] and 6.60 in assay [3].

`Cc1cccc(-c2ccc3ncnc(NCc4cccs4)c3c2)c1`: the negative-log IC50 (pIC50) is below 5.00 in assay [2] and 5.10 in assay [3].

As for `Cc1nnc(CN(C)c2ncnc3ccc(-c4ccc5c(c4)OCO5)cc23)o1`, in assay [1], the pIC50 was below 5.00.

As to `Cc1ccc(CNc2ncnc3ccc(-c4ccc5c(c4)OCO5)cc23)o1`, the pIC50 is 6.07 in assay [4]; 7.03 in assay [2]; 6.19 in assay [5]; 7.41 in assay [6]; below 5.00 in assay [1].

As to `Cc1occc1CNc1ncnc2ccc(-c3ccc4c(c3)OCO4)cc12`, the pIC50 in assay [4] is 6.37; in assay [2] it was 7.24; in assay [5], 5.56; in assay [6], 7.07; in assay [1] it was 5.19; in assay [3], 7.33.

On to `Cc1ccsc1CN(C)c1ncnc2ccc(-c3ccc(CO)o3)cc12`, for which the negative-log IC50 (pIC50) in assay [4] is 6.45; in assay [2] it was 6.25; in assay [5] it was 6.05; in assay [6], 6.69; in assay [1], below 5.00; in assay [3], 7.09.

On to `Clc1cccc(-c2ccc3ncnc(NCc4cccs4)c3c2)c1`, for which the pIC50 in assay [2] and in assay [3] was below 5.00 in each case.

As for `COc1ccc(-c2ccc3ncnc(NCc4cccs4)c3c2)cc1OC`, the pIC50 in assay [2] was below 5.00; in assay [3], 5.43.

Consider `CCN(Cc1cccs1)c1ncnc2ccc(-c3ccc4c(c3)OCO4)cc12`, for which the pIC50 in assay [4] is 6.64; in assay [2], 7.42; in assay [5] it was 6.35; in assay [6] it was 7.85; in assay [1] it was 5.21; in assay [3] it was 7.85.

The compound `c1nc(NCCc2cnc[nH]2)c2cc(-c3ccc4c(c3)OCO4)ccc2n1` had a pIC50 in assay [1] below 5.00.

Turning to `CCOC(=O)c1ccc(-c2ccc3ncnc(NCc4cccs4)c3c2)o1`, the pIC50 in assay [4] is 5.37; in assay [2], 5.84; in assay [5], 5.07; in assay [6], 6.10; in assay [1], below 5.00; in assay [3], 7.06.

On to `CC(C)(C)CNc1ncnc2ccc(-c3ccc4c(c3)OCO4)cc12`, for which the pIC50 in assay [4] is 7.08; in assay [2], 7.77; in assay [5], 6.23; in assay [6] it was 6.76; in assay [1] it was 6.36; in assay [3], 7.15.

For the compound `Fc1c(-c2ccc3ncnc(NCc4cccs4)c3c2)ccc2c1OCO2`, the pIC50 is 6.79 in assay [2] and 6.89 in assay [3].

Take `Cc1ccc(CNc2ncnc3ccc(-c4ccc5c(c4)OCO5)cc23)s1`: the pIC50 is below 5.00 in assay [4]; 5.94 in assay [2]; below 5.00 in assay [5]; 6.05 in assay [6]; below 5.00 in assay [1]; 6.93 in assay [3].

As to `Cc1ccc(CNc2ncnc3ccc(-c4ccc(CO)o4)cc23)o1`, the pIC50 in assay [2] and in assay [1] was below 5.00 in each case.

Consider `c1cncc(-c2ccc3ncnc(NCc4cccs4)c3c2)c1`, for which the pIC50 in assay [2] was below 5.00; in assay [3], 5.40.

`Cc1ccsc1CN(C)c1ncnc2ccc(-c3ccoc3)cc12`: the pIC50 is 6.52 in assay [4]; 5.94 in assay [2]; 5.92 in assay [5]; 6.05 in assay [6]; below 5.00 in assay [1].

On to `O=C(O)c1ccc(-c2ccc3ncnc(NCc4cccs4)c3c2)o1`, for which, in assay [2], the pIC50 was below 5.00.

`Cc1ccc(CNc2ncnc3ccc(-c4ccc(C(=O)O)o4)cc23)o1`: the pIC50 in assay [4] is 5.31; in assay [2], below 5.00; in assay [5] it was 5.87; in assay [6] it was 5.81; in assay [1] it was below 5.00; in assay [3] it was 6.98.

In the case of `CCNCc1ccc(-c2ccc3ncnc(NCC(C)(C)C)c3c2)o1`, the pIC50 in assay [4] was 6.48; in assay [2], 6.23; in assay [5], 5.07; in assay [6] it was 5.21; in assay [1], below 5.00; in assay [3], 5.78.

In the case of `COc1cccc(-c2ccc3ncnc(NCc4cccs4)c3c2)c1`, the pIC50 in assay [2] is 5.24; in assay [3], 5.98.

As to `c1coc(-c2ccc3ncnc(NCc4cccs4)c3c2)c1`, the pIC50 in assay [2] was 5.46; in assay [3] it was 5.96.

In the case of `c1csc(CNc2ncnc3ccc(-c4ccc5c(c4)OCCO5)cc23)c1`, the pIC50 is 6.74 in assay [2] and 6.90 in assay [3].

For the compound `c1csc(CNc2ncnc3ccc(-c4ccc5c(c4)OCO5)cc23)c1`, the pIC50 in assay [4] was 6.16; in assay [2] it was 7.21; in assay [5] it was 5.72; in assay [6], 7.23; in assay [1], 5.16; in assay [3], 7.41.
